Assay results published in US7176293B1, “Compositions and methods to enhance sensitivity of cancer cells to mitotic stress” (The Wistar Institute of Anatomy and Biology, priority 1999, dated 2007).

Experiments:
DLD1 cells [1] = test: Long term response to mitotic stress (colony formation); type: cell-based, human; conditions: 4 hour exposure 12 hours after release, colonies over three weeks
Method: Cells synchronized by a sequential thymidine-aphidicolin block were either not exposed to mitotic stress or exposed to 0.5 μg/ml nocodazole or the TAXOL™ drug for a 4 hour period starting 12 hours after aphidicolin release or release from the G1-S block. The short term response to mitotic stress was evaluated by examining the cell cycle profile at the time of nocodazole removal, 24 or 48 hours later. At the indicated time points, the cells were recovered from the tissue culture plates with trypsin, fixed in 70% ethanol for 10 minutes and incubated with propidium iodide and DNase-free RNase (Roche) in PBS containing 1% fetal bovine serum and 2% Tween-20. The nuclear morphology of the cells was visualized by fluorescence microscopy. The DNA content of the cell population was determined by flow cytometry.
To evaluate the long term response of the cells to survive exposure to mitotic stress, at the time of nocodazole removal, the cells were replated at a density of 200 cells per 100 mm diameter tissue culture dish. The cells were allowed to replicate and colonies were counted 3 weeks later.
To the long term response of the cells to survive exposure to mitotic stress, synchronized DLD1-neo and DLD1-chfr cells were transiently exposed to nocodazole or the TAXOL™ drug, as described above (e.g., exposed to nocodazole or the TAXOL™ drug 12 hours after release from the G1-S block for a 4 hour period). At the time of nocodazole removal, the cells were replated at a density of 200 cells per 100 mm diameter tissue culture dish and then allowed to form colonies over a three-week period.

[2] = system: eight human cancer cell lines (SW480, DLD1, HT29, HCT116, SAOS2, U20S, IMR5 and NGP); test: Mitotic index of unsynchronized human cancer cell lines treated with nocodazole; type: cell-based; conditions: 16 hours after nocodazole
Method: All cancer cells were grown in DMEM supplemented with glutamine, penicillin, streptomycin and 10% fetal bovine serum (Life Sciences). Normal human epidermal keratinocytes and osteoblasts were grown in KGM2 and OGM media, respectively (Clonetics). The cells were examined either non-synchronized or synchronized. For synchronization, the cells were treated with 2 mM thymidine for 16 hours, then with 0.25 mM thymidine/deoxycytidine for 9 hours, and then with 0.5 μg/ml aphidicolin for 20–24 hours. The cells were washed three times with PBS between each step [Janss et al., 1998, Exp. Cell Res., 243:29–38]. To induce mitotic stress, synchronized or non-synchronized cells were exposed to 0.5 μg/ml nocodazole, 5 μM of the TAXOL™ drug or 0.5 μg/ml colcemid. Cells were grown on 8-well culture slides coated with human fibronectin (Becton Dickinson) and were examined as either non-synchronized or synchronized cells. […] The slides were sealed with coverslips using Fluoromount-G (Upstate Biotechnology) and visualized with a fluorescence microscope (Leica). […] The cells were scored for Mitotic Index. […]

DLD1 cells [3] = test: Centrosome staining of synchronized DLD1-neo and DLD1-chfr cells; type: cell-based, human; conditions: nocodazole added 12 hours after aphidicolin release, 14 hour time point
Method: Cells were grown on 8-well culture slides coated with human fibronectin (Becton Dickinson) and were examined as either non-synchronized or synchronized cells. The cells were prepared for microscopy by washing them three times with KM buffer (10 mM MES, pH 6.2, 10 mM NaCl, 1.5 mM MgCl2, 2.5% glycerol), fixing with 1% paraformaldehyde in 0.5×KM buffer for 15 minutes, washing once with 0.2% Triton X-100 in phosphate buffer saline (PBS) for 20 minutes and three times with PBS. For centrosome staining, the cells were incubated for 1 hour with a 1:500 dilution of autoimmune serum Ab598 in PBS, washed three times with PBS, incubated with a Texas Red-conjugated anti-human secondary antibody (Vector Labs) diluted 1:200 in PBS and washed again three times with PBS. For DNA staining, the cells were incubated with DAP1 ([…] in PBS). The slides were sealed with coverslips using Fluoromount-G (Upstate Biotechnology) and visualized with a fluorescence microscope (Leica). Separate images, acquired using filters corresponding to the excitation maxima of DAP1 and Texas Red, were merged with IRIX image tools (Silicon Graphics).
To correlate the timing of the Chfr effect with progress through the cell cycle, synchronized cells were stained with DAP1 to monitor chromosome condensation and with an antibody that recognizes the centrosomes. […]

cyclin B/cdc2 = test: Cdc2 kinase activity in synchronized DLD1 cells; type: cell-based, human; conditions: synchronized DLD1-neo and DLD1-chfr cells treated 12 hours after release from the G1-S block
Method: Whole cell extracts, prepared as described above, were incubated with anti-cyclin B antibody (Santa Cruz) coupled to protein G beads (Pharmacia) in CL buffer for 1 hour. The beads were washed three times with CL buffer and then twice with cdc2 kinase (CK) buffer (50 mM HEPES, pH 7.0, 10 mM MgCl2, 10 mM MnCl2, 200 mM NaCl). The beads were then incubated with 1 μg histone H1 (Upstate Biotechnology) in CK buffer supplemented with 30 mM DTT, 0.06 μM ATP and 1 μCi ^32P-γ-ATP for 20 minutes at 30° C., at which time the reactions were subjected to denaturing gel electrophoresis. Phosphorylation of histone H1 was detected by autoradiography.

Chfr = biological target: T1, Chfr (Homo sapiens, UniProt Q96EP1); test: Ubiquitin-protein ligase assay in vitro; type: biochemical; conditions: crude bacterial lysates with E1, GST-Chfr, ubiquitin and ATP
T1 construct: Reactions were performed with full-length Chfr fused to GST; made in house; host or cells: E. coli (crude bacterial lysates)
T1 sequence (Q96EP1 1-664): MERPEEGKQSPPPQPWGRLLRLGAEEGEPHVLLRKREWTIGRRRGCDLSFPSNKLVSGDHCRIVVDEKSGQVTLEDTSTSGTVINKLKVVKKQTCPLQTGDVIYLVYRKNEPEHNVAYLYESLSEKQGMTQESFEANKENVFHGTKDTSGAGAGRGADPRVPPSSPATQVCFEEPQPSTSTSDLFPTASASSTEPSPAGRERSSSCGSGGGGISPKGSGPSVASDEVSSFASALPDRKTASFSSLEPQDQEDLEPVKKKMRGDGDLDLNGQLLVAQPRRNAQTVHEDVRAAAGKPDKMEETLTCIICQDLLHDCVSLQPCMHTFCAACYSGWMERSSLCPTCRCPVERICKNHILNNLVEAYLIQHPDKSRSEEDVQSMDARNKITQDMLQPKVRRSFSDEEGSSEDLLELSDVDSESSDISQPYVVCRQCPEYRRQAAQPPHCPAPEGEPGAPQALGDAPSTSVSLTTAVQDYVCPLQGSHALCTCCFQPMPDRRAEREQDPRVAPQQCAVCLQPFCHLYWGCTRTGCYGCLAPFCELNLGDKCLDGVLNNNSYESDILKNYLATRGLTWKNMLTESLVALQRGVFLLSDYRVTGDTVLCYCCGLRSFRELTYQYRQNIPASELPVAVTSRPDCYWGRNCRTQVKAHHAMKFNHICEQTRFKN
Method: Recombinant E. coli bacterial cells that have been genetically engineered to express the E1 ubiquitin-activating enzyme and the E2 ubiquitin-conjugating enzyme (either UbchD2 or Ubch8) and a […] comprised of glutathione S-transferase fused to the N-terminus of Chfr were lysed. The lysates were incubated in the presence of ubiquitin and ATP and the reaction allowed to proceed for 20 minutes at 30° C. GST-Chfr was captured on glutathione beads, eluted with SDS sample buffer, and resolved by SDS-PAGE. The SDS gel was immunoblotted with antibodies that recognize ubiquitin. Reactions were performed with full-length Chfr fused to GST and reactions were performed with Chfr lacking amino acid residues 1–280 of SEQ ID NO: 2, which contain the FHA domain.

Row | Compound | number of colony-forming units (CFUs) (DLD1 cells [1]; DLD1-chfr cells) | number of colony-forming units (CFUs) (DLD1 cells [1]; DLD1-neo cells) | mitotic index (fraction of cells that had condensed chromosomes) ([2]; cell lines that expressed wild-type Chfr) | mitotic index (fraction of cells that had condensed chromosomes) ([2]; cell lines with no detectable Chfr expression and U20S cells (variant chfr)) | centrosome separation (DLD1 cells [3]) | Cyclin B/cdc2 activity (cyclin B/cdc2) | ability of the E2 ubiquitin-conjugating enzyme to support ligase activity of Chfr (Chfr)
1 | CC(=O)O[C@H]1C(=O)[C@@]2(C)[C@H]([C@H](OC(=O)c3ccccc3)[C@]3(O)C[C@H](OC(=O)[C@H](O)[C@@H](NC(=O)c4ccccc4)c4ccccc4)C(C)=C1C3(C)C)[C@]1(OC(C)=O)CO[C@@H]1C[C@@H]2O [TAXOL™ drug] | unaffected | decrease | – | – | – | – | –
2 | COC(=O)Nc1nc2ccc(C(=O)c3cccs3)cc2[nH]1 [nocodazole] | unaffected | decrease | low | high | inhibited | high | –
3 | Ubch8: E2 ubiquitin-conjugating enzyme | – | – | – | – | – | – | did not function in this assay
